Experimental data published in ChEMBL document CHEMBL2384976, “Synthesis and cytotoxic evaluation of novel pyrimidine deoxyapiothionucleosides” (Bioorg Med Chem Lett, 2013).

Legend:
A549 = assay: Cytotoxicity against human A549 cells after 48 hrs by MTT assay; type: functional, cell-based
HT-29 [1] = assay: Cytotoxicity against human HT-29 cells after 48 hrs by MTT assay; type: functional, cell-based
MCF7 = assay: Cytotoxicity against human MCF7 cells after 48 hrs by MTT assay; type: functional, cell-based
HeLa = assay: Cytotoxicity against human HeLa cells after 48 hrs by MTT assay; type: functional, cell-based
MRC5 = assay: Cytotoxicity against human MRC5 cells after 48 hrs by MTT assay; type: cell-based
MDA-MB-231 [2] = assay: Cytotoxicity against human MDA-MB-231 cells after 48 hrs by MTT assay; type: functional, cell-based
MDA-MB-231 [3] = assay: Induction of cytotoxic response in human MDA-MB-231 cells after 48 hrs by MTT assay; type: functional
HT-29 [4] = assay: Induction of cytotoxic response in human HT-29 cells after 48 hrs by MTT assay; type: functional

Molecule C[C@@]1(O)CS[C@@H](n2ccc(N)nc2=O)[C@@H]1O [listing 1 of 2 here] has an IC50 (A549; a549) of 9 µM, an IC50 (HT-29 [1]; ht-29) of 6400 µM and an IC50 (MCF7; mcf7) of 139 µM. For the same molecule, the IC50 (HeLa; hela) was 17 µM, the IC50 (MRC5; mrc5) was 147 µM and the IC50 (MDA-MB-231 [2]; mda-mb-231) was 10 µM.
In the case of Cc1cn([C@@H]2SC[C@@](C)(O)[C@H]2O)c(=O)[nH]c1=O, the IC50 (A549; Homo sapiens, A549, 48 h) is reported as 41 µM, the Activity (MDA-MB-231 [3]) is reported as 57% and the IC50 (HT-29 [1]; Homo sapiens, HT-29, 48 h) is reported as 5 µM. It also gave an IC50 (MCF7; Homo sapiens, MCF7, 48 h) of 323 µM, an IC50 (HeLa; Homo sapiens, HeLa, 48 h) of 214 µM and an Activity (HT-29 [4]) of 62%. The IC50 (MRC5; Homo sapiens, MRC5, 48 h) was 269 µM and the IC50 (MDA-MB-231 [2]; Homo sapiens, MDA-MB-231, 48 h) was 3 µM.
Cc1cn([C@H]2SC[C@](C)(O)[C@@H]2O)c(=O)[nH]c1=O gave an IC50 (A549; Homo sapiens, A549, 48 h) of 30 µM, an IC50 (HT-29 [1]; Homo sapiens, HT-29, 48 h) of 640 µM and an IC50 (MCF7; Homo sapiens, MCF7, 48 h) of 172 µM. The IC50 (HeLa; Homo sapiens, HeLa, 48 h) was 6870 µM, the IC50 (MRC5; Homo sapiens, MRC5, 48 h) was 290 µM and the IC50 (MDA-MB-231 [2]; Homo sapiens, MDA-MB-231, 48 h) was 52 µM.
C[C@@]1(O)CS[C@@H](n2ccc(=O)[nH]c2=O)[C@@H]1O gave an IC50 (A549; Homo sapiens, A549, 48 h) of 4270 µM, an IC50 (HT-29 [1]; Homo sapiens, HT-29, 48 h) of 8 µM and an IC50 (MCF7; Homo sapiens, MCF7, 48 h) of 193 µM. The IC50 (HeLa; Homo sapiens, HeLa, 48 h) was 214 µM, the IC50 (MRC5; Homo sapiens, MRC5, 48 h) was 630 µM and the IC50 (MDA-MB-231 [2]; Homo sapiens, MDA-MB-231, 48 h) was 19 µM.
Molecule C[C@]1(O)CS[C@H](n2ccc(=O)[nH]c2=O)[C@H]1O has an IC50 (A549; Homo sapiens, A549, 48 h) of 30 µM, an IC50 (HT-29 [1]; Homo sapiens, HT-29, 48 h) of 269 µM and an IC50 (MCF7; Homo sapiens, MCF7, 48 h) of 100 µM. For the same molecule, the IC50 (HeLa; Homo sapiens, HeLa, 48 h) was 4320 µM, the IC50 (MRC5; Homo sapiens, MRC5, 48 h) was 1000 µM and the IC50 (MDA-MB-231 [2]; Homo sapiens, MDA-MB-231, 48 h) was 14 µM.
C[C@]1(O)CS[C@H](n2ccc(N)nc2=O)[C@H]1O gave an IC50 (A549; Homo sapiens, A549, 48 h) of 223 µM, an IC50 (HT-29 [1]; Homo sapiens, HT-29, 48 h) of 5990 µM and an IC50 (MCF7; Homo sapiens, MCF7, 48 h) of 13 µM. It also gave an IC50 (HeLa; Homo sapiens, HeLa, 48 h) of 12 µM, an IC50 (MRC5; Homo sapiens, MRC5, 48 h) of 221 µM and an IC50 (MDA-MB-231 [2]; Homo sapiens, MDA-MB-231, 48 h) of 11 µM.
C[C@@]1(O)CS[C@@H](n2ccc(N)nc2=O)[C@@H]1O [listing 2 of 2 here] showed an IC50 (A549; a549) of 1320 µM, an IC50 (HT-29 [1]; ht-29) of 2270 µM and an IC50 (MCF7; mcf7) of 1980 µM. It also gave an IC50 (HeLa; hela) of 106 µM, an IC50 (MRC5; mrc5) of 4340 µM and an IC50 (MDA-MB-231 [2]; mda-mb-231) of 58 µM.
